Measured values reported in patent publication US20090036499A1, “FLY CONTROL METHOD” (priority 2007, published 2009).

Test system: Adult L. serricata (blowflies)
Assay: Test A: adult blowflies on blood agar containing test compound, scored by number of dead flies
Type: in vivo
Details: 4 flies in test
Method: • Adult L. serricata (blowflies): Adult flies are placed on beds of blood agar (in individual test wells; 4 flies per well) in which test compound, (3-bromo-N-[4-chloro-2-methyl-6-[(methylamino)carbonyl]phenyl]-1-(3-chloro-2-pyridinyl)-1H-pyrazole-5-carboxamide), was dissolved/suspended prior to hardening of agar. Flies can take up test compound by both ingestion and contact. Assays are scored by number of dead flies at 2 hours, 4 hours, and 24 hours.

Structure (SMILES) | Number dead flies at 2 hours (1 ppm in blood agar) | Number dead flies at 4 hours (1 ppm in blood agar) | Number dead flies at 24 hours (1 ppm in blood agar) | Number dead flies at 2 hours (10 ppm in blood agar) | Number dead flies at 4 hours (10 ppm in blood agar) | Number dead flies at 24 hours (10 ppm in blood agar) | Number dead flies at 2 hours (25 ppm in blood agar) | Number dead flies at 4 hours (25 ppm in blood agar) | Number dead flies at 24 hours (25 ppm in blood agar) | Number dead flies at 2 hours (50 ppm in blood agar) | Number dead flies at 4 hours (50 ppm in blood agar) | Number dead flies at 24 hours (50 ppm in blood agar) | Number dead flies at 2 hours (100 ppm in blood agar) | Number dead flies at 4 hours (100 ppm in blood agar) | Number dead flies at 24 hours (100 ppm in blood agar)
CCOP(=S)(OCC)Oc1nc(Cl)c(Cl)cc1Cl [Chloropyriphos, O,O-diethyl-O-3,5,6-trichloro-2-pyridyl-phosphorothioate] | 0 | 1 | 4 | 1 | 4 | 4 | 3 | 4 | 4 | 4 | 4 | 4 | 4 | 4 | 4
CNC(=O)c1cc(Cl)cc(C)c1NC(=O)c1cc(Br)nn1-c1ncccc1Cl [Test Compound, 3-bromo-N-[4-chloro-2-methyl-6-[(methylamino)carbonyl]phenyl]-1-(3-chloro-2-pyridinyl)-1H-pyrazole-5-carboxamide] | 0 | 0 | 0 | 0 | 0 | 1 | 0 | 0 | 2 | 0 | 0 | 2 | 0 | 0 | 3
